Assay results reported in PMC7066176, “Crystal structure of a lipin/Pah phosphatidic acid phosphatase” (Nature Communications, 2020).

Biological target: T1, Tt Pah2 (Tetrahymena thermophila, UniProt I7MFJ3)
T1 construct: gene TTHERM_00215970; residues 1-321 (lacks 14 C-terminal residues of 335), codon-optimised, E. coli; ppSUMO His-SUMO tag cleaved by ULP-1, or pET28 N-terminal His tag kept
T1 sequence (I7MFJ3 1-321): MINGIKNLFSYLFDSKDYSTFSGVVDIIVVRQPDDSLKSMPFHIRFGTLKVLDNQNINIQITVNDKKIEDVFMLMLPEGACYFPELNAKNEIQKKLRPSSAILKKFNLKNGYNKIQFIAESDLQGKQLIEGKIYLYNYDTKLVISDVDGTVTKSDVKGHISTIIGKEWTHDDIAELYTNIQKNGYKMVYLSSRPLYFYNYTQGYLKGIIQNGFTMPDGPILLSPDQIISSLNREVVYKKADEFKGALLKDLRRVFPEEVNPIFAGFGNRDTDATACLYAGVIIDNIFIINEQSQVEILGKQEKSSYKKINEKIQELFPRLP
Assay: liposome sedimentation, SDS-PAGE
Type: binding
Conditions: 20 mol% POPA liposomes with 40 mol% POPE and POPC, pH 7.5, room temperature; preferential over neutral and POPS liposomes

For `CCCCCCCC/C=C\CCCCCCCC(=O)O[C@H](COC(=O)CCCCCCCCCCCCCCC)COP(=O)(O)O` [POPA], the “liposome sedimentation, SDS-PAGE” value was “Tt Pah2 also preferentially interacted with PA-containing liposomes, in comparison with neutral or anionic PS-enriched”.
